Data as given in ChEMBL document CHEMBL1139047, “Design and synthesis of a novel class of furan-based molecules as potential 20S proteasome inhibitors” (Bioorg Med Chem Lett, 2007).

Experiments:
[1] = Inhibition of chymotrypsin-like activity of 20S proteasome; type: subcellular, Homo sapiens
HepG2 = test: Antiproliferative activity against human HepG2 cells; type: functional, cell-based
HL-60 = test: Antiproliferative activity against human HL60 cells; type: functional, cell-based
[2] = Inhibition of peptidyl-glutamyl peptide hydrolase activity of 20S proteasome; type: subcellular, Homo sapiens
[3] = Inhibition of trypsin-like activity of 20S proteasome; type: subcellular, Homo sapiens

CC(C)[C@H](NC(=O)[C@H](Cc1ccccc1)NC(=O)[C@H](Cc1ccccc1)NC(=O)OC(C)(C)C)C(=O)c1ccco1
IC50 [1]: > 100 µM

CC(C)C[C@H](NC(=O)[C@H](Nc1ccccc1)[C@H](O)[C@H](Cc1ccccc1)NC(=O)OC(C)(C)C)C(=O)c1ccco1
IC50 [1]: > 100 µM

CC(C)[C@H](NC(=O)[C@H](NCc1ccccc1)[C@H](O)[C@H](Cc1ccccc1)NC(=O)OC(C)(C)C)C(=O)c1ccco1
IC50 [1]: > 100 µM

CC[C@@H](C)[C@H](NC(=O)[C@H](Nc1ccccc1)[C@H](O)[C@H](Cc1ccccc1)NC(=O)OC(C)(C)C)C(=O)c1ccco1
IC50 [1]: > 100 µM

CC[C@H](C)[C@H](NC(=O)[C@@H](NC(=O)[C@H](Cc1ccccc1)NC(=O)OC(C)(C)C)C(C)C)C(=O)c1ccco1
IC50 [1]: > 100 µM

CC(C)C[C@H](NC(=O)[C@H](NCc1ccccc1)[C@H](O)[C@H](Cc1ccccc1)NC(=O)OC(C)(C)C)C(=O)c1ccco1
IC50 [1]: > 100 µM

CC(C)C[C@H](NC(=O)[C@H](Cc1ccccc1)NC(=O)[C@H](Cc1ccccc1)NC(=O)OC(C)(C)C)C(=O)c1ccco1
IC50 (HepG2): 34.2 µM | IC50 (HL-60): 37.1 µM | IC50 [2]: > 100 µM | IC50 [3]: > 100 µM | IC50 [1]: 7.85 µM

CC(C)[C@H](NC(=O)[C@H](Cc1ccccc1)NC(=O)OC(C)(C)C)C(=O)N[C@H](C(=O)c1ccco1)C(C)C
IC50 [1]: > 100 µM

CC(C)C[C@H](NC(=O)[C@H](Cc1ccccc1)NC(=O)OC(C)(C)C)C(=O)N[C@H](C(=O)c1ccco1)C(C)C
IC50 [1]: > 100 µM

CC(C)[C@H](NC(=O)[C@H](Nc1ccccc1)[C@H](O)[C@H](Cc1ccccc1)NC(=O)OC(C)(C)C)C(=O)c1ccco1
IC50 [1]: > 100 µM

CC(C)C[C@H](NC(=O)[C@H](Cc1ccccc1)NC(=O)OC(C)(C)C)C(=O)N[C@@H](CC(C)C)C(=O)c1ccco1
IC50 [1]: > 100 µM

CC[C@H](C)[C@H](NC(=O)[C@H](CC(C)C)NC(=O)[C@H](Cc1ccccc1)NC(=O)OC(C)(C)C)C(=O)c1ccco1
IC50 [1]: > 100 µM

CC[C@H](C)[C@H](NC(=O)[C@H](Cc1ccccc1)NC(=O)[C@H](Cc1ccccc1)NC(=O)OC(C)(C)C)C(=O)c1ccco1
IC50 [1]: > 100 µM

CC[C@@H](C)[C@H](NC(=O)[C@H](NCc1ccccc1)[C@H](O)[C@H](Cc1ccccc1)NC(=O)OC(C)(C)C)C(=O)c1ccco1
IC50 [1]: > 100 µM

CC(C)C[C@H](NC(=O)[C@@H](NC(=O)[C@H](Cc1ccccc1)NC(=O)OC(C)(C)C)C(C)C)C(=O)c1ccco1
IC50 [1]: > 100 µM
